Source: patent publication US20250032426A1, “PHARMACEUTICAL COMPOSITIONS” (SpecNova LLC, priority 2021, published 2025)

Target: Human Dopamine Transporter (DAT) (Homo sapiens, UniProt Q01959)
Test: Human Dopamine Transporter (DAT) Binding (Antagonist Radioligand) Assay
Details: for % of Control Specific Binding (1st Test) / % of Control Specific Binding (2nd Test) / % Inhibition of Control Specific Binding / % of Control Specific Binding (mean of two tests): [3H]BTCP 4 nM radioligand; for % Inhibition of Control Specific Binding: cell membrane homogenates, 120 min at 4° C., test concentration not given; for level of inhibition in the dopamine transporter inhibitory assay (in words): qualitative statement in the description
Protocol: Human Dopamine Transporter (DAT) Binding (Antagonist Radioligand) Assay
Nonspecific binding is determined in the presence of 10 μM BTCP. Following incubation, the samples are filtered rapidly under vacuum through glass fiber filters (GF/B, Packard) presoaked with 0.3% PEI and rinsed several times with ice-cold 50 mM Tris-HCl using a 96-sample cell harvester (Unifilter, Packard). The filters are dried then counted for radioactivity in a scintillation counter (Topcount, Packard) using a scintillation cocktail (Microscint 0, Packard). The results are expressed as a percent inhibition of the control radioligand specific binding.

Sequence of Human Dopamine Transporter (DAT) (Q01959 whole entry): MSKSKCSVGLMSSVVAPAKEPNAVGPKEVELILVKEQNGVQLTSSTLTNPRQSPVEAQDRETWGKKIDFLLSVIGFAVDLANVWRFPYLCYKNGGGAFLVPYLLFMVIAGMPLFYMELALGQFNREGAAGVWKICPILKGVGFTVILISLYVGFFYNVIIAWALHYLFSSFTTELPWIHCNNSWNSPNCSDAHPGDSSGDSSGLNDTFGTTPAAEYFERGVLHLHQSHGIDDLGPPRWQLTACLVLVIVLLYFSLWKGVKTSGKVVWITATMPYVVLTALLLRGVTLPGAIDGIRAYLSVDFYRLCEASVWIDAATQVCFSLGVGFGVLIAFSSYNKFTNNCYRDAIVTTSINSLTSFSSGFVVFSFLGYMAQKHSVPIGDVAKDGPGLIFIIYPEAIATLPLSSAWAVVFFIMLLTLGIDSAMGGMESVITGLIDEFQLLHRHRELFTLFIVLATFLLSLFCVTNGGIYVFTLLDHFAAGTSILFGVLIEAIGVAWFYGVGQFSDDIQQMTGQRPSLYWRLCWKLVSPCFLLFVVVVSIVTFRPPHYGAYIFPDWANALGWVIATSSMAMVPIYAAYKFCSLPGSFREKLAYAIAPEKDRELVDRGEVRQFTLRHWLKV

Row | % of Control Specific Binding (1st Test) | % of Control Specific Binding (2nd Test) | % Inhibition of Control Specific Binding | % of Control Specific Binding (mean of two tests) | level of inhibition in the dopamine transporter inhibitory assay (in words) | SMILES
1 | 4.2% | 5% | 95% | 4.6% | extremely high level of inhibition | OC[C@@H](O)[C@@H](/C=C/c1ccc(O)cc1)c1ccc(O)cc1 [Agatharesinol, (2S,3S,4E)-3,5-bis(4-hydroxyphenyl)pent-4-ene-1,2-diol]
2 | 7.4% | 5.6% | 94% | 6.5% | extremely high level of inhibition | OC[C@@H](O)[C@@H](/C=C/c1ccc(O)cc1)c1ccc(O)c(O)c1 [Sequirin C, 4-[(1S,2E)-1-[(1S)-1,2-dihydroxyethyl]-3-(4-hydroxyphenyl)prop-2-en-1-yl]benzene-1,2-diol]

Row | SMILES | % of Control Specific Binding (1st Test) | % of Control Specific Binding (2nd Test) | % Inhibition of Control Specific Binding | % of Control Specific Binding (mean of two tests) | level of inhibition in the dopamine transporter inhibitory assay (in words)
3 | CC(C)=CCc1c(C2CCc3ccc(O)cc3O2)ccc(O)c1O (stereo in doubt) [Kazinol U, 4-[(2S)-7-hydroxy-3,4-dihydro-2H-chromen-2-yl]-3-(3-methylbut-2-enyl) benzene-1,2-diol] | 33.6% | 42.8% | 62% | 38.2% | high level of inhibition
